Activity calls are given as the source filed them. The rule behind the calls is not given here.
Columns and labels:
Type in all cases: functional, organism-based
[1] = system: Mus musculus; assay: Central nervous system depression activity in mouse assessed as decrease in locomotor activity at 25 mg/kg, ip; design: dose 25 mg/kg
[2] = system: Mus musculus; assay: Central nervous system depression activity in mouse assessed as decrease in locomotor activity at 50 mg/kg, ip; design: dose 50 mg/kg
[3] = system: Mus musculus; assay: Central nervous system depression activity in mouse assessed as decrease in touch response at 50 mg/kg, ip; design: dose 50 mg/kg
[4] = system: Mus musculus; assay: Central nervous system depression activity in mouse assessed as staggering gait at 50 mg/kg, ip after 40 mins; design: dose 50 mg/kg
[5] = system: Mus musculus; assay: Central nervous system depression activity in mouse assessed as decrease in touch response at 25 mg/kg, ip; design: dose 25 mg/kg
[6] = system: Mus musculus; assay: Central nervous system depression activity in mouse assessed as staggering gait at 25 mg/kg, ip after 30 mins; design: dose 25 mg/kg
[7] = system: Mus musculus; assay: Central nervous system depression activity in mouse assessed as fast respiration at 50 mg/kg, ip after 40 mins; design: dose 50 mg/kg
[8] = system: Mus musculus; assay: Central nervous system depression activity in mouse assessed as abduction of limbs at 50 mg/kg, ip after 60 mins; design: dose 50 mg/kg
[9] = system: Mus musculus; assay: Central nervous system depression activity in mouse assessed as tremors on movement at 50 mg/kg, ip after 60 mins; design: dose 50 mg/kg
[10] = system: Mus musculus; assay: Central nervous system depression activity in mouse assessed as induction of passivity at 50 mg/kg, ip after 60 mins; design: dose 50 mg/kg
[11] = system: Mus musculus; assay: Central nervous system depression activity in mouse assessed as decrease in body and limb tone at 50 mg/kg, ip after 60 mins; design: dose 50 mg/kg
[12] = system: Mus musculus; assay: Central nervous system depression activity in mouse assessed as ptosis at 25 mg/kg, ip; design: dose 25 mg/kg
[13] = system: Mus musculus; assay: Central nervous system depression activity in mouse assessed as staggering gait at 25 mg/kg, ip; design: dose 25 mg/kg
[14] = system: Mus musculus; assay: Central nervous system depression activity in mouse assessed as passivity at 25 mg/kg, ip; design: dose 25 mg/kg

| Compound | Activity [1] | Activity [2] | Activity [3] | Activity [4] | Activity [5] | Activity [6] | Activity [7] | Activity [8] | Activity [9] | Activity [10] | Activity [11] | Activity [12] | Activity [13] | Activity [14] |
| --- | --- | --- | --- | --- | --- | --- | --- | --- | --- | --- | --- | --- | --- | --- |
| CO[C@H]1[C@H](O[C@H]2CC[C@@]3(C)[C@H](CC[C@@H]4[C@@H]3CC[C@]3(C)C(C5=CC(=O)OC5)=CC[C@]43O)C2)O[C@H](C)[C@H](O)[C@@H]1OC | Active | Active | Active | Active | inactive | – | – | – | – | – | – | – | – | – |
| CO[C@H]1[C@@H](O)[C@@H](C)O[C@@H](O[C@H]2CC[C@@]3(C)[C@H](CC[C@@H]4[C@@H]3CC[C@]3(C)[C@@H](C5=CC(=O)OC5)[C@@H](OC(C)=O)C[C@]43O)C2)[C@@H]1O | – | Active | – | – | inactive | Active | Active | Active | Active | Active | Active | – | – | – |
| CO[C@H]1[C@@H](O)[C@@H](C)O[C@@H](O[C@H]2CC[C@@]3(C)[C@H](CC[C@@H]4[C@@H]3CC[C@]3(C)[C@@H](C5=CC(=O)OC5)CC[C@]43O)C2)[C@@H]1O | Active | Active | – | – | Active | – | – | – | – | – | – | Active | Active | Active |
